According to patent US8377918B2 (ACC Therapeutics Inc, priority 2005, dated 2013):

Columns and labels:
[1] = system: HCT-116 cells; assay: MTT cell proliferation assay, HCT-116 colon cancer cells; type: cell-based, human; conditions: HCT-116, apigenin alone, 24 h
Protocol: FIG. 17. […] A, the prostate cancer cells PC-3 and DU145; B, colon cancer cells Colo-205 and HCT-116; C, lung cancer cells A549 and H460 cells were plated at 1×10^4 cells per well in a 96 well plate in 100 μl of media.

[2] = system: VEGF expression in OVCAR-3 cells; assay: VEGF ELISA of supernatants, OVCAR-3; type: cell-based, human; conditions: OVCAR-3, 15 h
Protocol: FIG. 6. […] OVCAR-3 and A2780/CP70 cells were plated in 12-well plates and cultured to 90% confluence. […] The concentrations of VEGF in the supernatants were determined by ELISA method as described in Materials and Methods. The data are mean±SE from three independent experiments and each experiment was performed with triplicate cultures.

O=c1cc(-c2ccc(O)cc2)oc2cc(O)cc(O)c12 [apigenin, 4′,5,7,-trihydroxyflavone]
effect on cell proliferation [1]: inhibited the proliferation
effect on expression of VEGF [2]: inhibited the expression of VEGF
